Reference: patent publication US4908351A, “Antibiotic a 42867 derivative” (Merrell Dow Pharmaceuticals Inc., priority 1988, dated 1990)

Legend:
Assay in all cases: MIC, broth dilution test
Assay type in all cases: cell-based
Staph. aureus L 165 = conditions: Isosensitest broth, 24 h, 37° C.
Protocol: Culture media and growth conditions for MIC (minimal inhibitory concentration) determinations were as follows: Isosensitest broth (Oxoid), 24 h, for staphylococci, Strep. faecalis and Gram-negative bacteria (Escherichia coli); Todd-Hewitt broth (Difco), 24 h for other streptococcal species; GC base broth (Difco) +1% Isovitalex (BBL), 48 h, CO2 -enriched atmosphere for Neisseria gonorrhoeae; Brain Heart broth (Difco) +1% Supplement C (Difco), 48 h for Haemophilus influenzae. PPLO broth with supplements as in R. T. Evans and D. Taylor-Robinson (J. Antimicrob. Chemother. 4, 57), 24 h for U. urealyticum. Incubation was at 37° C. […] The minimal inhibitory concentrations (MIC, microgram/ml) for some microorganisms are reported below in Table I.

[1] = system: Escherichia coli L 47 SKF 12140; conditions: Isosensitest broth, 24 h, 37° C.
Protocol: (§1) Culture media and growth conditions for MIC (minimal inhibitory concentration) determinations were as follows: Isosensitest broth (Oxoid), 24 h, for staphylococci, Strep. faecalis and Gram-negative bacteria (Escherichia coli); Todd-Hewitt broth (Difco), 24 h for other streptococcal species; GC base broth (Difco) +1% Isovitalex (BBL), 48 h, CO2 -enriched atmosphere for Neisseria gonorrhoeae; Brain Heart broth (Difco) +1% Supplement C (Difco), 48 h for Haemophilus influenzae. PPLO broth with supplements as in R. T. Evans and D. Taylor-Robinson (J. Antimicrob. Chemother. 4, 57), 24 h for U. urealyticum. Incubation was at 37° C. Inocula were as follows: about 10^4 color-changing units/ml for U. urealyticum; about 10^4 -10^5 colony-forming units/ml for other broth dilution MICs. The minimal inhibitory concentrations (MIC, microgram/ml) for some microorganisms are reported below in Table I.

[2] = system: Haemophilus influenzae type b L 970 ATCC 19418; conditions: Brain Heart broth +1% Supplement C, 48 h, 37° C.
Protocol: as §1

[3] = system: Neisseria gonorrhoeae L 997 ISM 68/126; conditions: GC base broth +1% Isovitalex, 48 h, CO2-enriched atmosphere, 37° C.
Protocol: as §1

[4] = system: Staph. epidermidis L 147 ATCC 12228 (coagulase negative); conditions: Isosensitest broth, 24 h, 37° C.
Protocol: as §1

[5] = system: Staph. haemolyticus clin isolate; conditions: Isosensitest broth, 24 h, 37° C.
Protocol: as §1

[6] = system: Strep. faecalis L 149 ATCC 7080; conditions: Isosensitest broth, 24 h, 37° C.
Protocol: as §1

[7] = system: Strep. mitis L 796 (clinical isolate); conditions: Todd-Hewitt broth, 24 h, 37° C.
Protocol: as §1

[8] = system: Strep. pneumoniae L 44 UC 41; conditions: Todd-Hewitt broth, 24 h, 37° C.
Protocol: as §1

[9] = system: Strep. pyogenes L 49 C 203; conditions: Todd-Hewitt broth, 24 h, 37° C.
Protocol: as §1

[10] = system: Ureaplasma urealyticum 1479 clin. isolate; conditions: PPLO broth with supplements, 24 h, about 10^4 color-changing units/ml, 37° C.
Protocol: as §1

antibiotic A 42867 pseudoaglycon
M.I.C. (Staph. aureus L 165; Staph. aureus 10^6 cfu/ml): 1 microgram/ml
M.I.C. (Staph. aureus L 165; Staph. aureus 30% bovine serum): 2 microgram/ml
M.I.C. (Staph. aureus L 165; Staph. aureus L 165, 10^4 cfu/ml): 1 microgram/ml
M.I.C. [1]: > 128 microgram/ml
M.I.C. [2]: > 128 microgram/ml
M.I.C. [3]: 64 microgram/ml
M.I.C. [4]: 2 microgram/ml
M.I.C. [5]: 2 microgram/ml
M.I.C. [6]: 2 microgram/ml
M.I.C. [7]: 0.5 microgram/ml
M.I.C. [8]: 1 microgram/ml
M.I.C. [9]: 0.5 microgram/ml
M.I.C. [10]: > 128 microgram/ml
